Assay results taken from the supplement of paper PMC10307832.

How the values were obtained:
Assay in all cases: relative viability (nuclei count vs DMSO), 5 days (fraction); higher = more cells survive
KIN001-266 + Decitabine = compound: CCN1CCC(CC1)N2C=C(N=N2)CNC3=CC4=C(C(=CN=C4C(=C3)Cl)C#N)NC5=CC(=C(C=C5)F)Cl [KIN001-266] + Nc1ncn([C@H]2C[C@H](O)[C@@H](CO)O2)c(=O)n1 [Decitabine] (partner 2 µM)
Method in brief: (§1)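 Each reported value is a median over duplicate plates. It expresses relative viability: treated-well nuclei count divided by vehicle-well nuclei count. Lung cancer cell lines in 1536-well plates were dosed by pin tool a day after seeding, alone with one drug or with a fixed anchor-drug dose plus five library-drug doses (not always all listed) in √10 steps, and nuclei were counted after 5 days.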

KIN001-266 + AZD7762 = compound: CCN1CCC(CC1)N2C=C(N=N2)CNC3=CC4=C(C(=CN=C4C(=C3)Cl)C#N)NC5=CC(=C(C=C5)F)Cl [KIN001-266] + NC(=O)Nc1cc(-c2cccc(F)c2)sc1C(=O)N[C@H]1CCCNC1 [AZD7762] (partner 0.2 µM)
Method in brief: as §1

KIN001-266 + Tozasertib = compound: CCN1CCC(CC1)N2C=C(N=N2)CNC3=CC4=C(C(=CN=C4C(=C3)Cl)C#N)NC5=CC(=C(C=C5)F)Cl [KIN001-266] + Cc1cc(Nc2cc(N3CCN(C)CC3)nc(Sc3ccc(NC(=O)C4CC4)cc3)n2)n[nH]1 [Tozasertib] (partner 0.1 µM)
Method in brief: as §1

KIN001-266 + Bortezomib = compound: CCN1CCC(CC1)N2C=C(N=N2)CNC3=CC4=C(C(=CN=C4C(=C3)Cl)C#N)NC5=CC(=C(C=C5)F)Cl [KIN001-266] + CC(C)C[C@H](NC(=O)[C@H](Cc1ccccc1)NC(=O)c1cnccn1)B(O)O [Bortezomib] (partner 0.002 µM)
Method in brief: as §1

Cell Line A549 has a relative viability (KIN001-266 + Decitabine; first compound 0.08 µM) of 0.401, a relative viability (KIN001-266 + Decitabine; first compound 0.253 µM) of 0.207 and a relative viability (KIN001-266 + Decitabine; first compound 0.8 µM) of 0.24. It also gave a relative viability (KIN001-266 + Decitabine; first compound 2.53 µM) of 0.35 and a relative viability (KIN001-266 + Decitabine; first compound 8 µM) of 0.223.
Cell Line NCI-H358 has a relative viability (KIN001-266 + AZD7762; first compound 0.08 µM) of 0.574, a relative viability (KIN001-266 + AZD7762; first compound 0.253 µM) of 0.459 and a relative viability (KIN001-266 + AZD7762; first compound 0.8 µM) of 0.41. It also gave a relative viability (KIN001-266 + AZD7762; first compound 2.53 µM) of 0.547, a relative viability (KIN001-266 + AZD7762; first compound 8 µM) of 0.474 and a relative viability (KIN001-266 + Decitabine; first compound 0.08 µM) of 0.209. For the same cell line, the relative viability (KIN001-266 + Decitabine; first compound 0.253 µM) was 0.219, the relative viability (KIN001-266 + Decitabine; first compound 0.8 µM) was 0.197 and the relative viability (KIN001-266 + Decitabine; first compound 2.53 µM) was 0.212. It also gave a relative viability (KIN001-266 + Decitabine; first compound 8 µM) of 0.173, a relative viability (KIN001-266 + Tozasertib; first compound 0.08 µM) of 0.107 and a relative viability (KIN001-266 + Tozasertib; first compound 0.253 µM) of 0.129. It also gave a relative viability (KIN001-266 + Tozasertib; first compound 0.8 µM) of 0.132, a relative viability (KIN001-266 + Tozasertib; first compound 2.53 µM) of 0.0982 and a relative viability (KIN001-266 + Tozasertib; first compound 8 µM) of 0.0945.
Cell Line CAL-12T has a relative viability (KIN001-266 + AZD7762; first compound 0.08 µM) of 0.633, a relative viability (KIN001-266 + AZD7762; first compound 0.253 µM) of 0.639 and a relative viability (KIN001-266 + AZD7762; first compound 0.8 µM) of 0.574. The relative viability (KIN001-266 + AZD7762; first compound 2.53 µM) was 0.642, the relative viability (KIN001-266 + AZD7762; first compound 8 µM) was 0.606 and the relative viability (KIN001-266 + Tozasertib; first compound 0.08 µM) was 0.345. For the same cell line, the relative viability (KIN001-266 + Tozasertib; first compound 0.253 µM) was 0.3, the relative viability (KIN001-266 + Tozasertib; first compound 0.8 µM) was 0.291 and the relative viability (KIN001-266 + Tozasertib; first compound 2.53 µM) was 0.312. The relative viability (KIN001-266 + Tozasertib; first compound 8 µM) was 0.255, the relative viability (KIN001-266 + Bortezomib; first compound 0.08 µM) was 1.04 and the relative viability (KIN001-266 + Bortezomib; first compound 0.253 µM) was 0.976. It also gave a relative viability (KIN001-266 + Bortezomib; first compound 2.53 µM) of 1.12 and a relative viability (KIN001-266 + Bortezomib; first compound 8 µM) of 0.97.
COR-L23 showed a relative viability (KIN001-266 + Decitabine; first compound 0.08 µM) of 0.487, a relative viability (KIN001-266 + Decitabine; first compound 0.253 µM) of 0.497 and a relative viability (KIN001-266 + Decitabine; first compound 0.8 µM) of 0.466. For the same cell line, the relative viability (KIN001-266 + Decitabine; first compound 2.53 µM) was 0.464, the relative viability (KIN001-266 + Decitabine; first compound 8 µM) was 0.389 and the relative viability (KIN001-266 + Tozasertib; first compound 0.08 µM) was 0.19. The relative viability (KIN001-266 + Tozasertib; first compound 0.253 µM) was 0.182, the relative viability (KIN001-266 + Tozasertib; first compound 0.8 µM) was 0.206 and the relative viability (KIN001-266 + Tozasertib; first compound 2.53 µM) was 0.164. For the same cell line, the relative viability (KIN001-266 + Tozasertib; first compound 8 µM) was 0.151, the relative viability (KIN001-266 + Bortezomib; first compound 0.08 µM) was 0.966 and the relative viability (KIN001-266 + Bortezomib; first compound 0.253 µM) was 0.994. It also gave a relative viability (KIN001-266 + Bortezomib; first compound 0.8 µM) of 0.927, a relative viability (KIN001-266 + Bortezomib; first compound 2.53 µM) of 0.857 and a relative viability (KIN001-266 + Bortezomib; first compound 8 µM) of 0.777.
IA-LM was tested, and the relative viability (KIN001-266 + Bortezomib; first compound 0.08 µM) was 0.838, the relative viability (KIN001-266 + Bortezomib; first compound 0.253 µM) was 0.729 and the relative viability (KIN001-266 + Bortezomib; first compound 0.8 µM) was 0.94. For the same cell line, the relative viability (KIN001-266 + Bortezomib; first compound 2.53 µM) was 0.736 and the relative viability (KIN001-266 + Bortezomib; first compound 8 µM) was 0.674.
Cell Line NCI-H1650 has a relative viability (KIN001-266 + Decitabine; first compound 0.08 µM) of 0.396, a relative viability (KIN001-266 + Decitabine; first compound 0.253 µM) of 0.43 and a relative viability (KIN001-266 + Decitabine; first compound 0.8 µM) of 0.426. For the same cell line, the relative viability (KIN001-266 + Decitabine; first compound 2.53 µM) was 0.544, the relative viability (KIN001-266 + Decitabine; first compound 8 µM) was 0.388 and the relative viability (KIN001-266 + Tozasertib; first compound 0.08 µM) was 0.564. It also gave a relative viability (KIN001-266 + Tozasertib; first compound 0.253 µM) of 0.406, a relative viability (KIN001-266 + Tozasertib; first compound 0.8 µM) of 0.372 and a relative viability (KIN001-266 + Tozasertib; first compound 2.53 µM) of 0.263. It also gave a relative viability (KIN001-266 + Tozasertib; first compound 8 µM) of 0.162, a relative viability (KIN001-266 + Bortezomib; first compound 0.08 µM) of 0.241 and a relative viability (KIN001-266 + Bortezomib; first compound 0.253 µM) of 0.203. The relative viability (KIN001-266 + Bortezomib; first compound 0.8 µM) was 0.191, the relative viability (KIN001-266 + Bortezomib; first compound 2.53 µM) was 0.214 and the relative viability (KIN001-266 + Bortezomib; first compound 8 µM) was 0.19.
With Calu-6 the relative viability (KIN001-266 + Bortezomib; first compound 0.08 µM) was 1.11, the relative viability (KIN001-266 + Bortezomib; first compound 0.253 µM) was 1.11 and the relative viability (KIN001-266 + Bortezomib; first compound 0.8 µM) was 1.05. It also gave a relative viability (KIN001-266 + Bortezomib; first compound 2.53 µM) of 0.948 and a relative viability (KIN001-266 + Bortezomib; first compound 8 µM) of 0.682.
